From the METLIN SMRT retention time set (Domingo-Almenara et al. 2019)

Experiment: gradient 5% acetonitrile 3 min, to 50% in 2 min, to 85% in 15 min, held 3 min, 100 µL/min
Details: column: Zorbax Extend-C18 2.1 x 50 mm; eluents: water / acetonitrile, 0.1% formic acid
Summary of the method: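 Using water and acetonitrile that each contained 0.1% formic acid, mixtures of ~100 pure standards were separated at 100 μL/min on a Zorbax Extend-C18 column (2.1 × 50 mm, 1.8 μm). The HPLC fed a quadrupole time-of-flight mass spectrometer working in positive and negative ionization mode, with dead and dwell volumes of 40 μL and 900 μL. Data were acquired over 3 months. Retention time was read from computationally picked adduct peaks after manual inspection of each.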

Row | RP-LC retention time [s] | Structure (SMILES)
1 | 632 | CCC(C(=O)NCCN1CCCC1)n1c2ccccc2c2cnn(C)c(=O)c21 (centres undefined)
2 | 698 | COc1cccc(CNC(=O)Cc2csc3nc(-c4ccc(OC)c(OC)c4)cn23)c1
3 | 882 | NS(=O)(=O)c1ccc(NS(=O)(=O)c2cc(-c3noc(C4CCCC4)n3)cs2)cc1
4 | 1030 | Cc1ccc(NC(=O)N2CCCC2c2nc(-c3ccccc3)no2)cc1C (centres undefined)
5 | 727 | CCc1csc(-c2cn(CC(=O)Nc3ccc(OC)c(Cl)c3)cn2)n1
6 | 645 | O=C(c1c(OCC2CC2)cc(=O)n2c1CCCCC2)N1CCOCC1
7 | 842 | CCc1ccc(CNC(=O)C2CCN(c3ncnc4c3oc3ccccc34)CC2)cc1
8 | 868 | CCn1cc(S(=O)(=O)Nc2cccc(C)c2C)c2cccnc21
9 | 855 | CC1CCN(C(=O)Cn2c(=O)c3cccn3c3ccc(F)cc32)CC1
10 | 677 | Cc1cc(-c2nnc(NC(=O)CS(=O)(=O)c3ccc(Cl)cc3)o2)nn1C
11 | 842 | Cc1nn(-c2nc(CC(=O)N3CCOCC3)cs2)c(C)c1Cl
12 | 921 | Cc1ccc(CN2C(=O)COc3ccc(C(=O)NCc4ccc5c(c4)OCO5)cc32)cc1
13 | 954 | Cn1cc2c3c(cccc31)CN(C(=O)Cc1ccccc1F)CC2
14 | 698 | CCn1nc(C)c(CCNC(=O)CCCn2c3ccccc3c3cnn(C)c(=O)c32)c1C
15 | 807 | CCOC(=O)c1sc(NC(=O)C2CCCCN2S(C)(=O)=O)cc1C (centres undefined)
16 | 676 | COc1ccc(OC)c(NC(=O)N2CCN(c3cc(C)nc(N4CCCC4)n3)CC2)c1
17 | 549 | Cc1n[nH]c(C)c1CNC(=O)C1Cn2cccc2C(=O)N1C (centres undefined)
18 | 978 | Cc1ccccc1CNC(=O)C1(C)Oc2cccnc2N(C(C)C)C1=O (centres undefined)
19 | 672 | Cc1cc(=O)n(CC(=O)Nc2ccc(F)cc2Cl)c(N2CCOCC2)n1
20 | 704 | NC(=O)c1ccc2c(c1)CCCN2C(=O)c1ccc(Cl)cc1
21 | 696 | COc1ccc(-c2nnc(-c3cc(S(=O)(=O)NCc4cccnc4)ccc3Cl)o2)cc1
22 | 611 | COc1ccc(NC(=O)N2CCC(N3C[C@H]4C[C@H](C3)[C@H]3CCCC(=O)N3C4)CC2)cc1OC

Row | RP-LC retention time [s] | Structure (SMILES)
23 | 636 | CCOC(=O)C1=C(CN2CCN(C)CC2)NC(=O)NC1c1ccc(OC(C)C)cc1 (centres undefined)
24 | 653 | Cn1cc(-c2ccncc2)cc1C(=O)NCc1ccc(F)cc1Cl
25 | 760 | CC(C)NC(=O)c1cc2c(=O)oc3ccccc3c2n1C
26 | 1020 | COc1cc(OC)cc(-c2nc(NC(=O)C3CCCN(c4cnc5ccccc5n4)C3)n[nH]2)c1 (centres undefined)
27 | 1000 | CCn1cc(-c2nc(C)c(C(=O)Nc3ccccc3F)s2)c2cccnc21
28 | 652 | CCC(C)N(CCNC(=O)Cn1c(=O)oc2ccccc21)Cc1cccs1 (centres undefined)
29 | 980 | CCC(CC)C(=O)Nc1nc(-c2ccc3c(c2)N(CC)C(=O)CO3)cs1
30 | 847 | CC1CCc2nc3ncn(CC(=O)NCCC4=CCCCC4)c(=O)c3cc2C1 (centres undefined)
31 | 1160 | CCCSCCCNc1nc(-c2nnc(-c3ccc(C)cc3)o2)nc2ccccc12
32 | 648 | CC(C)(C)NC(=O)N1CCN(Cc2nc3cccnc3n2-c2cccc(F)c2)CC1
33 | 578 | O=C(c1nccc2ccccc12)N1C[C@@H](CO)[C@H](c2ccccn2)C1
34 | 797 | CCn1cnc(S(=O)(=O)N2CCCC(C(=O)Nc3cccc(Cl)c3)C2)c1 (centres undefined)
35 | 621 | CCOC(=O)C1CCCN(C(=O)CCC2NC(=O)c3ccccc3NC2=O)C1 (centres undefined)
36 | 879 | Cc1cnn(Cc2nc(-c3ccc(NC(=O)c4cccs4)cc3)oc2C)c1
37 | 996 | CCCCn1cc(S(=O)(=O)NCc2ccccc2Cl)c2cccnc21
38 | 670 | CC(C)Cn1c(=O)c(C(=O)NC2CCN(Cc3ccccc3)CC2)nc2cccnc21
39 | 737 | CC1CCC(C(=O)Nc2ccc3c(c2)n(C)c(=O)c(=O)n3C)CC1 (centres undefined)
40 | 1150 | Clc1ccccc1-c1nnc2sc(-c3ccc4ccccc4n3)nn12
41 | 832 | CCc1ccc(C2=C(C)C(N3CCCN(C(=O)c4ccoc4)CC3)=NS2(=O)=O)cc1
42 | 1230 | Cc1ccc(Cl)cc1NS(=O)(=O)c1cc(-c2nc(C(C)C)cs2)cs1
43 | 860 | COc1ccc(C2Cn3nnc(C(=O)N4CCC(C(=O)NC5CCCCC5)CC4)c3CO2)cc1 (centres undefined)
44 | 782 | CCN1CCN(CCNC(=O)c2nc3ccccn3c2-c2ccc(Cl)cc2)CC1

Row | RP-LC retention time [s] | Structure (SMILES)
45 | 588 | O=C(Cc1ccsc1)N1CCC(Nc2ncnc3c2CCC3)C1 (centres undefined)
46 | 772 | COc1ccc(Cl)cc1NC(=O)Cn1c(N2CCOCC2)nc(C)cc1=O
47 | 785 | COc1ccc(S(=O)(=O)N2C[C@@H](F)C[C@H]2C(=O)N2CCCCC2)cc1Cl
48 | 828 | CCn1c(=O)c(N2CCC(C(=O)NCCc3ccco3)CC2)nc2cccnc21
49 | 609 | COc1ccc(OC)c(Nc2nc(NCCO)c3cnn(C)c3n2)c1
50 | 915 | CCNc1nc(Nc2cc(F)c(C(=O)N3CCOCC3)cc2OC)ncc1C(F)(F)F
51 | 908 | Cc1ccccc1Cc1nc(-c2ccnc(N3CCOCC3)c2)no1
52 | 732 | CC(=O)N1CCc2sc(C(=O)N3CCN(c4ccccc4)CC3)cc2C1
53 | 712 | O=C(c1ccn[nH]1)N1CC(F)(F)C[C@H]1c1nc(C2CC2)no1
54 | 1090 | O=C(Nc1ccc(Cl)cc1F)c1cc(C2CC2)on1
55 | 1030 | O=C(Cn1cnc2c(-c3ccc(F)cc3)csc2c1=O)Nc1ccc(Br)cc1F
56 | 593 | CCOC(=O)c1c(C)[nH]c(C(=O)N2CCCC(C(=O)NCCCN3CCOCC3)C2)c1C (centres undefined)
57 | 717 | COCC(=O)Nc1nnc(SCc2nnc(-c3ccc4c(c3)OCO4)o2)s1
58 | 602 | Cc1nnc(-c2c(S(=O)(=O)NC3CCN(Cc4ccccc4)CC3)c(C)n(C)c2C)o1
59 | 877 | COc1ccc(C2c3[nH]c4ccccc4c3CCN2C(=O)c2ccncc2)cc1 (centres undefined)
60 | 738 | Cc1ccc(C)c(NC(=O)CC2COc3ccccc3NC2=O)c1 (centres undefined)
61 | 560 | CCCN1CCN(CCCNC(=O)Cn2c3ccccc3c3cnn(C)c(=O)c32)CC1
62 | 568 | CCN1CCN(C(=O)c2nc(-c3ccnc(N4CCCCC4)c3)no2)CC1
63 | 701 | Cn1c(N)c(S(=O)(=O)N2CCN(c3ccccc3F)CC2)c(=O)n(C)c1=O
64 | 644 | O=C(Cc1c[nH]c2ncccc12)NCC1CCCCC1
65 | 717 | O=C(c1cn[nH]c1)N1CCC(c2nc(CCOCC3CCCC3)no2)C1 (centres undefined)
66 | 907 | Cn1nc2c(c1NC(=O)C1(c3ccc(Cl)cc3)CCCC1)CCC2

Row | RP-LC retention time [s] | Structure (SMILES)
67 | 967 | Cc1ccc(N2CC(c3nc4ccccc4n3CC(=O)N(CC(C)C)CC(C)C)CC2=O)cc1 (centres undefined)
68 | 761 | COc1cc([C@@H]2c3cc4c(cc3[C@H](O)[C@@H](CO)[C@@H]2C(=O)NCCCc2ccccc2)OCO4)cc(OC)c1OC
69 | 929 | O=C(Cc1cn(Cc2ccccc2)c2ccccc12)NCc1cccs1
70 | 689 | O=C(c1ccoc1)N1CCCCC1c1nncn1Cc1ccccc1 (centres undefined)
71 | 900 | Cc1ccc2c(c1)N(Cc1cc(F)cc(F)c1)N=C(C(=O)N1CCCC1)S2(=O)=O
72 | 623 | Cc1ccc(S(=O)(=O)N2CC[C@H](c3n[nH]c(C)n3)[C@H](N(C)C)C2)c(C)c1
73 | 656 | COCCN(Cc1ccc(C)cc1)Cc1cc(=O)n2ccc(C)cc2n1
74 | 662 | O=S(=O)(c1ccc2c(c1)CCC2)N1CCC(Cc2nc(-c3ccncc3)n[nH]2)C1 (centres undefined)
75 | 722 | Cn1c(C2CCN(S(=O)(=O)c3ccc(F)c(Cl)c3)CC2)cc(=O)n2nccc12
76 | 901 | Cc1ccn2cc(C(=O)N3CCN(c4ccccc4C)CC3)nc2c1
77 | 797 | Cc1ccc(-n2nc3c(=O)n(CCCC(=O)NC4CCCC4)nc(C)c3c2C)cc1
78 | 645 | O=C(c1cccc2c1CCN2C(=O)C1CC1)N1CCOCC1
79 | 832 | O=C(Nc1ccc2c(c1)OCCO2)c1cn(-c2cc(N3CCSCC3)ncn2)cn1
80 | 788 | O=S(=O)(Nc1ccc(Nc2ccc(-n3cccn3)nn2)cc1)c1ccc(F)cc1F
81 | 678 | COc1ccc(NC(=O)c2cccn2-c2cccnc2)cc1OC
82 | 751 | O=C(NC1CCN(c2cc(-c3ccc(Cl)cc3)[nH]n2)C1)c1ccccn1 (centres undefined)
83 | 945 | COc1ccc(NC(=O)N2CC(C)Oc3ccc(C)cc32)cc1 (centres undefined)
84 | 1090 | Cc1cc(Cl)ccc1NC(=O)c1cc(C(C)C)on1
85 | 1030 | O=c1c2sccc2n(Cc2nc(-c3ccc(F)cc3)no2)c(=O)n1Cc1ccccc1
86 | 703 | NS(=O)(=O)c1ccc(NC(=O)C2CCCN(c3ccc(=O)n(-c4cccc(F)c4)n3)C2)cc1 (centres undefined)
87 | 850 | Cc1cc(C)cc(C(=O)N2CCCC(C(=O)NCCc3cccs3)C2)c1 (centres undefined)
88 | 642 | COc1cccc(S(=O)(=O)N2CCC(CN3CCCCCC3)CC2)c1

Row | Structure (SMILES) | RP-LC retention time [s]
89 | c1ccc2c(N3CCNCC3)cccc2c1 | 690
